Experimental data as given in patent US8618107B2 (Gilead Connecticut, Inc., priority 2010, dated 2013).

How the values were obtained:
[1] = tested on: CD86 surface expression on CD19+/7AAD- mouse splenocytes stimulated with IgM; test: CD86 Inhibition Assay; assay type: cell-based; settings: Splenocyte; total mouse splenocytes (Balb/c), IgM stimulation 24 hr
Method: Following the 24 hr incubation, cells are transferred to conical bottom clear 96-well plates and pelleted by centrifugation at 1200×g×5 min. […] Cells are sorted on a BD FACSCalibur and gated on the CD19^+/7AAD^− population. The levels of CD86 surface expression on the gated population is measured versus test compound concentration.

[2] = tested on: CD69 on CD20 positive cells in human whole blood stimulated by anti-IgM; test: CD69 Whole Blood Assay; assay type: cell-based; settings: anti-human IgM stimulation, 20 hours
Method: Human blood is obtained from healthy volunteers, with the following restrictions: 1 week drug-free, non-smokers. Blood (approximately 20 mls to test 8 compounds) is collected by venipuncture into Vacutainer® (Becton, Dickinson and Co.) tubes with sodium heparin.
Solutions of Formula I compounds at 10 mM in DMSO are diluted 1:10 in 100% DMSO, then are diluted by three-fold serial dilutions in 100% DMSO for a ten point dose-response curve. The compounds are further diluted 1:10 in PBS and then an aliquot of 5.5 μl of each compound is added in duplicate to a 2 ml 96-well plate; 5.5 μl of 10% DMSO in PBS is added as control and no-stimulus wells. Human whole blood—HWB (100 μl) is added to each well. After mixing the plates are incubated at 37° C., 5% CO2, 100% humidity for 30 minutes. Goat F(ab′)2 anti-human IgM (10 μl of a 500 μg/ml solution, 50 μg/ml final) is added to each well (except the no-stimulus wells) with mixing and the plates are incubated for an additional 20 hours. At the end of the 20 hour incubation, samples are incubated with fluorescent labeled antibodies for 30 minutes, at 37° C., 5% CO2, 100% humidity. Include induced control, unstained and single stains for compensation adjustments and initial voltage settings. Samples are then lysed with PharM Lyse™ (BD Biosciences Pharmingen) according to the manufacturer's instructions. Samples are then transferred to a 96 well plate suitable to be run on the BD Biosciences HTS 96 well system on the LSRII machine. Data acquired and Mean Fluorescence Intensity values were obtained using BD Biosciences DIVA Software. Results are initially analyzed by FACS analysis software (Flow Jo). […] The IC50 values are calculated by Prism version 5, using a nonlinear regression curve fit.

Btk = Btk (Homo sapiens (Human), UniProt Q06187); test: standard biochemical Btk Kinase Assay (Example 901); settings: Table 2
Sequence of Btk (Q06187 whole entry): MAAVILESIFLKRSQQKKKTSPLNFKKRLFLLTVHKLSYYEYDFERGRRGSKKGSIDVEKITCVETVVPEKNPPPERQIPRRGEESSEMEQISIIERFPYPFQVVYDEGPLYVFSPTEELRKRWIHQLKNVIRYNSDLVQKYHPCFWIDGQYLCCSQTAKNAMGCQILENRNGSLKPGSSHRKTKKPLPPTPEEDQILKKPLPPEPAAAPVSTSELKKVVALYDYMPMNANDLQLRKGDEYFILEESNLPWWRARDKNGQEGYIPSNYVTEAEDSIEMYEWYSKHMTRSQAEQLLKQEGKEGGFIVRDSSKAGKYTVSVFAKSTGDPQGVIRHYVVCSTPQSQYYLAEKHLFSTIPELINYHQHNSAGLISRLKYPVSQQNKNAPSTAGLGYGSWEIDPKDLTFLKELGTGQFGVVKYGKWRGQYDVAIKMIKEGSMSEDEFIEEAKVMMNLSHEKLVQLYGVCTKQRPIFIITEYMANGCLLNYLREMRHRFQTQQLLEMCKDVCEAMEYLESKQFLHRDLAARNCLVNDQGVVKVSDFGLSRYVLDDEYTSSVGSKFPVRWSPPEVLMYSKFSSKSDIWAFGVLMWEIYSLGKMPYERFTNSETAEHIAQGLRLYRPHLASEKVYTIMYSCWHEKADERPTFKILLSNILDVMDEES
From the text: Determination of IC50 values can be accomplished using conventional techniques known in the art. In general, an IC50 can be determined by measuring the activity of a given enzyme in the presence of a range of concentrations of the inhibitor under study. The experimentally obtained values of enzyme activity then are plotted against the inhibitor concentrations used. […] Analogously, other inhibitory concentrations can be defined through appropriate determinations of activity.

| Structure (SMILES) | EC50 [1] | IC50 [2] | melting point | IC50 (Btk) |
| --- | --- | --- | --- | --- |
| CN1CCCC1c1ccc(Nc2cc(-c3cc(F)cc(N4CCc5c(sc6c5CCCC6)C4=O)c3CO)cn(C)c2=O)nc1 (stereo in doubt) [Example 313, 5-[5-Fluoro-2-(hydroxymethyl)-3-(1-methyl-5-{[5-(2S)-(1-methylpyrrolidin-2-yl)pyridine-2-yl]amino}-6-oxo-1,6-dihydropyridin-3-yl)phenyl]-8-thia-5-azatricyclo[7.4.0.0^2,7]trideca-1(9),2(7)-dien-6-one] | 6 nM | 44 nM | – | – |
| CN1CCN(c2ccc(Nc3cc(-c4cc(F)cc(N5CCn6c(cc7c6CCCC7)C5=O)c4CO)cn(C)c3=O)nc2)CC1 [Example 197, 2-(5-fluoro-2-(hydroxymethyl)-3-(1-methyl-5-(5-(4-methylpiperazin-1-yl)pyridin-2-ylamino)-6-oxo-1,6-dihydropyridin-3-yl)phenyl)-3,4,6,7,8,9-hexahydropyrazino[1,2-a]indol-1(2H)-one] | 22 nM | 23 nM | – | – |
| CN1CCN(c2ccc(Nc3cc(-c4cccc(N5CCc6c(cc7n6CCCC7)C5=O)c4CO)cn(C)c3=O)nc2)CC1 [Example 275, 2-(2-(Hydroxymethyl)-3-(1-methyl-5-(5-(4-methylpiperazin-1-yl)pyridin-2-ylamino)-6-oxo-1,6-dihydropyridin-3-yl)phenyl)-3,4,6,7,8,9-hexahydropyrido[3,4-b]indolizin-1(2H)-one] | – | – | 180 to 181 °C | 16.3 nM |
| CN(C)CCN(C)c1ccc(Nc2cc(-c3cc(F)cc(N4CCc5c(sc6c5CCCC6)C4=O)c3CO)cn(C)c2=O)nc1 [Example 286, 2-(3-(5-(5-((2-(Dimethylamino)ethyl)(methyl)amino)pyridin-2-ylamino)-1-methyl-6-oxo-1,6-dihydropyridin-3-yl)-5-fluoro-2-(hydroxymethyl)phenyl)-3,4,5,6,7,8-hexahydrobenzothieno[2,3-c]pyridin-1(2H)-one] | 4 nM | – | 122 to 123 °C | – |
| CN(Cc1cc(Nc2cc(-c3cc(F)cc(N4CCc5c(sc6c5CCCC6)C4=O)c3CO)cn(C)c2=O)nn1C)C1COC1 [Example 324, 5-[5-Fluoro-2-(hydroxymethyl)-3-{1-methyl-5-[(1-methyl-5-{[methyl(oxetan-3-yl)amino]methyl}-1H-pyrazol-3-yl)amino]-6-oxo-1,6-dihydropyridin-3-yl}phenyl]-8-thia-5-azatricyclo[7.4.0.0^2,7]trideca-1(9),2(7)-dien-6-one] | – | 53 nM | – | – |
| CN1CCC(c2ccc(Nc3cc(-c4cccc(N5CCc6c(sc7c6CC(C)(C)C7)C5=O)c4CO)cn(C)c3=O)nc2)CC1 [Example 325, 10-[2-(Hydroxymethyl)-3-(1-methyl-5-{[5-(1-methylpiperidin-4-yl)pyridine-2-yl]amino}-6-oxopyridin-3-yl)phenyl]-4,4-dimethyl-7-thia-10-azatricyclo[6.4.0.0^2,6]dodeca-1(8),2(6)-dien-9-one] | – | 24 nM | – | – |
| COCc1c(-c2cc(Nc3ccc(N4CCN(C)CC4)cn3)c(=O)n(C)c2)cc(F)cc1N1CCn2c(cc3c2CCCC3)C1=O [Example 343, 2-{5-fluoro-2-(methoxymethyl)-3-(1-methyl-5-(5-(4-methylpiperazin-1-yl)pyridin-2-ylamino)-6-oxo-1,6-dihydropyridin-3-yl)phenyl)-3,4,6,7,8,9-hexahydropyrazino[1,2-a]indol-1(2H)-one] | – | 53 nM | – | – |
| CN1CCN(c2ccc(Nc3cc(-c4cc(F)cc(N5CCn6c(cc7c6CCCC7)C5=O)c4CO)cn(C)c3=O)nc2)C(=O)C1 [Example 345, 2-(5-fluoro-2-(hydroxymethyl)-3-(1-methyl-5-(5-(4-methyl-2-oxopiperazin-1-yl)pyridin-2-ylamino)-6-oxo-1,6-dihydropyridin-3-yl)phenyl)-3,4,6,7,8,9-hexahydropyrazino[1,2-a]indol-1(2H)-one] | – | 24 nM | – | – |
